The results in this text go back to patent publication US12630492B2, “Cannabinoid derivatives” (CANOPY GROWTH CORPORATION, priority 2019, dated 2026).

As a reminder, the IC50 is the concentration that inhibits the measured activity by half.

For one experiment, the target named is T1, human CB2 receptor (Homo sapiens, UniProt P34972).
T1 construct: host or cells: CHO-K1 (Chinese hamster ovary) cells, stably transfected; membranes prepared in house
Nature of the experiment: CB2 radioligand competitive binding assay ([3H]CP 55,940 displacement). As to conditions: for IC50: [3H]CP 55,940 displacement, membranes of CHO-K1 cells expressing human CB2 receptor, read-out: CB2 IC50; for Selectivity CB2: fold difference between CB1 and CB2 binding, printed in column of receptor with higher affinity, 1.00 in both = same affinity.

A further experiment has as its target T2, human CB1 receptor (Homo sapiens, UniProt P21554).
T2 construct: host or cells: CHO-K1 (Chinese hamster ovary) cells, stably transfected; membranes prepared in house
Put plainly: CB1 radioligand competitive binding assay ([3H]CP 55,940 displacement). As to conditions: [3H]CP 55,940 displacement, membranes of CHO-K1 cells expressing human CB1 receptor; read-out: CB1 IC50.

T2 sequence (P21554 whole entry): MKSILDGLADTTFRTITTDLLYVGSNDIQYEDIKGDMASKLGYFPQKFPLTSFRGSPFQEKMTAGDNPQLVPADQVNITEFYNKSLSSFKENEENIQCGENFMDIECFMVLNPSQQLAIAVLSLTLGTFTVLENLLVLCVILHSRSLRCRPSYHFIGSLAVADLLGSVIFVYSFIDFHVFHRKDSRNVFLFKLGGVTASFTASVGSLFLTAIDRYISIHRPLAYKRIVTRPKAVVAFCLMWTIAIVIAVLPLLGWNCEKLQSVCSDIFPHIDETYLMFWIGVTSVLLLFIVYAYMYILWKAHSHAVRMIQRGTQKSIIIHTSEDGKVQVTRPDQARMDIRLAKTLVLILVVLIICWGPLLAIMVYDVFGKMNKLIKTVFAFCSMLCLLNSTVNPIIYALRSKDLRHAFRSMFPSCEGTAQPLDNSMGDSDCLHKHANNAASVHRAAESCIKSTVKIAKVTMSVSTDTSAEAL
T1 sequence (P34972 whole entry): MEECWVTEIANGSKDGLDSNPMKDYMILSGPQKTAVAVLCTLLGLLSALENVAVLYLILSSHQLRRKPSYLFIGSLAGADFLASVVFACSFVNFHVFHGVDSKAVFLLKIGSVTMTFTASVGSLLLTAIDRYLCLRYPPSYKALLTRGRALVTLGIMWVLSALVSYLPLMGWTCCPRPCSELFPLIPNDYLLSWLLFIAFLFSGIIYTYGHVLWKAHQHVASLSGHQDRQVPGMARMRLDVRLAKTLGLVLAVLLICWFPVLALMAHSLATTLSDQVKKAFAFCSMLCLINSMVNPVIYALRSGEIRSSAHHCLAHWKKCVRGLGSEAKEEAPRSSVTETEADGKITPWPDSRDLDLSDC

Regarding `CCCCCc1cc(O)c(-c2cccc(C)c2)c(OCN(C(=O)OC)c2ccccc2)c1` [Compound 14a, methyl (((6-hydroxy-3′-methyl-4-pentyl-[1,1′-biphenyl]-2-yl)oxy)methyl)(phenyl)carbamate], at human CB2 receptor, the half-inhibitory concentration (IC50) was 0.05 to 0.99 µM and the “Selectivity CB2” value is reported as 9.84. Further, the 50% inhibitory concentration (IC50) on human CB1 receptor is 1 to 9.99 µM.

For the compound `C=C(C)C1CCC(C)=CC1c1c(OCOCC)cc(CCCCC)cc1OCOCC` (stereo not drawn) [17′d, 2′,6′-bis(ethoxymethoxy)-5-methyl-4′-pentyl-2-(prop-1-en-2-yl)-1,2,3,4-tetrahydro-1,1′-biphenyl], the half-inhibitory concentration (IC50) at human CB2 receptor lay within 0.05 to 0.99 µM; on human CB1 receptor, 1 to 9.99 µM. Also, the “Selectivity CB2” value on human CB2 receptor is on record as 3.03.

For `CCCCCc1cc(OCN(C(=O)OC)c2ccccc2)c(C2C=C(C)CCC2)c(OCN(C(=O)OC)c2ccccc2)c1` (stereo not drawn) [14′c, dimethyl (((5′-methyl-4-pentyl-1′,2′,3′,4′-tetrahydro-[1,1′-biphenyl]-2,6-diyl)bis(oxy))bis(methylene))bis(phenylcarbamate)], at human CB2 receptor, the IC50 lay in the range of 0.05 to 0.99 µM and the “Selectivity CB2” value came out at 62.50. The IC50 on human CB1 receptor was in the range of 1 to 9.99 µM.

Take `CCCCCc1cc(O)c(C2C=C(C)CCC2)c(OCOC(=O)OCC)c1` (stereo not drawn) [Compound 5c, ethyl (((6-hydroxy-5′-methyl-4-pentyl-1′,2′,3′,4′-tetrahydro-[1,1′-biphenyl]-2-yl)oxy)methyl) carbonate]: the values for the IC50 at human CB2 receptor and at human CB1 receptor were 0.05 to 0.99 µM and 1 to 9.99 µM, respectively. The “Selectivity CB2” value on human CB2 receptor stood at 9.09.

Regarding `CCCCCc1cc(OCOCCOC)c(-c2cccc(C)c2)c(OCOCCOC)c1` [2′a, 2,6-bis((2-methoxyethoxy)methoxy)-3′-methyl-4-pentyl-1,1′-biphenyl], at human CB2 receptor, the IC50 lay in the range of 0.05 to 0.99 µM and the “Selectivity CB2” value is 19.73. In addition, at human CB1 receptor, the IC50 was greater than 10 µM.

Regarding `C=C(C)[C@@H]1CCC(C)=C[C@H]1c1c(O)cc(CCC)cc1OCOC(=O)C(C)(C)C` [Compound 23d, ((6-hydroxy-5′-methyl-2′-(prop-1-en-2-yl)-4-propyl-1′,2′,3′,4′-tetrahydro-[1,1′-biphenyl]-2-yl)oxy)methyl pivalate], at human CB2 receptor, the half-maximal inhibitory concentration (IC50) lay in the range of 1 to 9.99 µM and the “Selectivity CB2” value was 2.50. For the same compound, the IC50 on human CB1 receptor was 1 to 9.99 µM.

For the compound `C=C(C)[C@@H]1CCC(C)=C[C@H]1c1c(O)cc(CCC)cc1OCOC(=O)OCC` [Compound 24d, ethyl (((6-hydroxy-5′-methyl-2′-(prop-1-en-2-yl)-4-propyl-1′,2′,3′,4′-tetrahydro-[1,1′-biphenyl]-2-yl)oxy)methyl) carbonate], the 50% inhibitory concentration (IC50) at human CB2 receptor lay in the range of 0.05 to 0.99 µM; on human CB1 receptor it was 1 to 9.99 µM. Moreover, at human CB2 receptor, the “Selectivity CB2” value turned out to be 1.52.

Take `CCCCCc1cc(O)c(-c2cccc(C)c2)c(OCOCCOC)c1` [Compound 2a, 6-((2-methoxyethoxy)methoxy)-3′-methyl-4-pentyl-[1,1′-biphenyl]-2-ol]: on human CB2 receptor, the concentration for half-maximal inhibition (IC50) was in the range of 0.05 to 0.99 µM and the “Selectivity CB2” value was found to be 11.11. Besides, the IC50 at human CB1 receptor fell in the range of 1 to 9.99 µM.

For `C=C(C)C1CCC(C)=CC1c1c(OCOCC)cc(C(C)(C)CCCCCC)cc1OCOCC` (stereo not drawn) [19′d, 2′,6′-bis(ethoxymethoxy)-5-methyl-4′-(2-methyloctan-2-yl)-2-(prop-1-en-2-yl)-1,2,3,4-tetrahydro-1,1′-biphenyl], at human CB2 receptor, the IC50 was 1 to 9.99 µM and the “Selectivity CB2” value is given as 2.00. Besides, on human CB1 receptor, the 50% inhibitory concentration (IC50) lay within 1 to 9.99 µM.

Take `C=C(C)C1CCC(C)=CC1c1c(O)cc(CCCCC)cc1OCOC1CCCCC1` (stereo not drawn) [Compound 18d, 6-((cyclohexyloxy)methoxy)-5′-methyl-4-pentyl-2′-(prop-1-en-2-yl)-1′,2′,3′,4′-tetrahydro-[1,1′-biphenyl]-2-ol]: the IC50 at human CB2 receptor is 0.05 to 0.99 µM; on human CB1 receptor, 1 to 9.99 µM. Moreover, the “Selectivity CB2” value at human CB2 receptor stood at 3.23.

Regarding `C=C(C)C1CCC(C)=CC1c1c(O)cc(CCCCC)cc1OCOC(=O)C(C)(C)C` (stereo not drawn) [Compound 8d, ((6-hydroxy-5′-methyl-4-pentyl-2′-(prop-1-en-2-yl)-1′,2′,3′,4′-tetrahydro-[1,1′-biphenyl]-2-yl)oxy)methyl pivalate], on human CB2 receptor, the IC50 was in the range of 0.05 to 0.99 µM and the “Selectivity CB2” value came out at 1.76. The IC50 on human CB1 receptor was in the range of 0.05 to 0.99 µM.
